Experimental data reported in the NIST ThermoML archive (doi:10.1016/j.tca.2012.07.021).

Columns and labels:
[1] = Crystal; DTA
[2] = Molar enthalpy of transition or fusion; conditions: Crystal; DSC
[3] = molar heat capacity at constant pressure; conditions: 101.33 kPa, Crystal, Small sample (50 mg) DSC

O.O.O.O.O.O.[Cl-].[Cl-].[Mg+2] [magnesium chloride hexahydrate]
Conditions | Molar enthalpy of transition or fusion [kcal/mol] | Normal melting temperature [°C]
[1] | – | 117.5
[2] | 8.21 | –

[3]
Conditions | molar heat capacity at constant pressure [J/K/mol]
298.15 K | 336.4
299.15 K | 336.1
300.15 K | 336.2
301.15 K | 336.7
302.15 K | 337.2
303.15 K | 337.8
304.15 K | 338.3
305.15 K | 338.8
306.15 K | 339.3
307.15 K | 339.8
308.15 K | 340.3
309.15 K | 340.9
310.15 K | 341.4
311.15 K | 342
312.15 K | 342.5
313.15 K | 343
314.15 K | 343.5
315.15 K | 344.1
316.15 K | 344.6
317.15 K | 345.2
318.15 K | 345.7
319.15 K | 346.3
320.15 K | 346.9
321.15 K | 347.4
322.15 K | 348
323.15 K | 348.5
324.15 K | 349.1
325.15 K | 349.6
326.15 K | 350.1
327.15 K | 350.7
328.15 K | 351.3
329.15 K | 351.8
330.15 K | 352.4
331.15 K | 353
332.15 K | 353.6
333.15 K | 354.2
334.15 K | 354.8
335.15 K | 355.4
336.15 K | 355.9
337.15 K | 356.5
338.15 K | 357.1
339.15 K | 357.8
340.15 K | 358.4
341.15 K | 359.1
342.15 K | 359.7
343.15 K | 360.3
344.15 K | 360.9
345.15 K | 361.5
346.15 K | 362.2
347.15 K | 362.9
348.15 K | 363.6
349.15 K | 364.3
350.15 K | 365
351.15 K | 365.6
352.15 K | 366.3
353.15 K | 367
354.15 K | 367.8
355.15 K | 368.6
356.15 K | 369.3
357.15 K | 370.1
358.15 K | 370.8
359.15 K | 371.7
360.15 K | 372.4
361.15 K | 373.3
362.15 K | 374.2
363.15 K | 375.1
364.15 K | 376
365.15 K | 377
366.15 K | 377.9
367.15 K | 379
368.15 K | 380
369.15 K | 381.1
370.15 K | 382.1
371.15 K | 383.3
372.15 K | 384.4
373.15 K | 385.6
374.15 K | 386.8
375.15 K | 388.1
376.15 K | 389.3
377.15 K | 390.6
378.15 K | 392
379.15 K | 393.4
380.15 K | 394.9
381.15 K | 396.4
382.15 K | 397.8
383.15 K | 399.4
384.15 K | 401.3
385.15 K | 403.3
386.15 K | 405.5
387.15 K | 409.7
388.15 K | 418.7
389.15 K | 451.6
